The values that follow come from article PMC11123961, “Design, Synthesis, and Biological Evaluation of the Quorum-Sensing Inhibitors of Pseudomonas aeruginosa PAO1” (Molecules, 2024).

Series [1] has as its system P. aeruginosa PAO1 elastase. In words: Elastase quantification (EnzCheck Elastase Assay Kit). Type of series: cell-based, Pseudomonas aeruginosa. How it is done:
The method previously described was used to perform the elastase quantification experiment. In LB medium, P. aeruginosa PAO1 was cultivated until the logarithmic growth phase at 37 °C and 150 rpm. […] Elastase activity was detected using the EnzCheckTM Elastase Assay Kit after filtration with a 0.22 μm filter membrane.

For series [2], the system named is P. aeruginosa PAO1 rhamnolipid. In words: Rhamnolipid quantification assay (orcinol). It counts as cell-based, Pseudomonas aeruginosa. How it is done: The rhamnolipid quantification assay was as follows: sulfuric acid–orcinol concentrated solution was used to examine the compound’s impact on P. aeruginosa PAO1 rhamnolipid. Initially, 50 μg/mL, 100 μg/mL, 200 μg/mL, and 400 μg/mL of a prepared solution of rhamnose standard at a concentration of 1 mg/mL in tilled water were diluted. Subsequently, 900 μL of 0.19% orcinol-concentrated sulfuric acid solution (0.19% orcinol (w/v), 50% H2SO4) was mixed with 100 μL of each concentration of rhamnose standard solution, and the mixture was incubated for 30 min at 80 °C in a water bath. After cooling to 25 °C, the OD value at 421 nm was measured. A standard curve of rhamnose concentration–absorbance values was established using Excel software 2019.
After cultivating P. aeruginosa PAO1 in LB medium for a logarithmic growth phase at 37 °C and 150 rpm, the bacterial culture was diluted with PPGAS solution (20 mM KCl, 20 mM NH4Cl, 0.5% glucose, 1.6 mM MgSO4, 120 mM Tris-HCl, and 1.0% peptone) to OD600 = 0.05. […] After centrifuging the bacterial cultures for 10 min at 1665 g, the supernatants were gathered. After extracting the supernatants twice using ethyl acetate, the organic layers were gathered and allowed to dry out at room temperature overnight. After resuspending the solid product in deionized water, 100 μL was added to 900 μL of 0.19% orcinol in 50% H2SO4, and the mixture was incubated for 30 min at 80 °C in a water bath. After cooling to 25 °C, the OD value at 421 nm was measured. The rhamnolipid content in the sample was determined according to a rhamnose standard curve (rhamnolipid content = 2.5 × rhamnose content).

For series [3], the system named is wildtype Caenorhabditis elegans N2 infected with P. aeruginosa PAO1. Kind of series: C. elegans survival assay. It counts as in vivo. From the text: 3.2.7. C. elegans Survival Assay
The negative control was the PGS agar plate coated with E. Coli OP50. Next, 50 wildtype C. elegans N2 strain-synchronized nematodes (L4 stage) were chosen and placed onto the plates. […] When the nematodes in the study were immobile, they were deemed dead. The number of nematodes that survived was tabulated to generate a survival curve.

Series [4] relates to P. aeruginosa PAO1 swarming motility. In words: Swarming motility analysis. The following applies: 40 μM, 81.25 μM and 162.5 μM, swarming agar plates. It counts as cell-based, Pseudomonas aeruginosa. How it is done: 3.2.6. Swarming Motility Analysis
After being inoculated into LB medium, P. aeruginosa PAO1 was cultivated at 37 °C and 150 rpm until OD600 = 1.0. Then, 1 μL of P. aeruginosa PAO1 bacterial medium was inoculated into the center of swarming solid medium (0.8% nutrient broth (BD), 0.5% glucose, 0.3% agar (BD)) and cultured at 30 °C for 16 h. Then, the colonies of the swarming plate were picked and added to the center of the cooled swarming solid medium (0.8% nutrient broth (BD), 0.5% glucose, 0.5% agar (BD)), which had been supplemented with compounds and cultured at 30 °C for 24 h.

A further series concerns P. aeruginosa PAO1. In words: Growth activity of PAO1 (OD600 growth curve). The note with it: 162.50, 81.25 and 40.00 μM, OD600 over 24 h. It counts as cell-based, Pseudomonas aeruginosa. How it is done: 3.2.4. The Growth of the Compound of PAO1 QS Activity Analysis
P. aeruginosa PAO1 in log phase was diluted to OD600 = 0.05 in fresh LB medium. Then, 98 μL of diluted bacterial solution and 2 μL of Y-31 solution were added to the 96-well plate. The final concentration of Y-31 in each well was 162.50 μM, 81.25 μM, and 40.00 μM, respectively. The pores without the compound Y-31 were used as blank controls. The cells were incubated in an incubator at 37 °C for 24 h, and OD600 was measured at 0 h, 2 h, 4 h, 6 h, 8 h, 10 h, 12 h, and 24 h, respectively.

A further series relates to RAW 264.7 cells. In words: Cytotoxicity test, CCK8. The following applies: 162.50, 81.25 and 40.00 μM, 12 h. Type of series: cell-based, mouse. How it is done:
The cell line used in this study was mouse mononuclear macrophage leukemia cell RAW 264.7. The cells were cultured in DMEM complete medium (basal medium containing 10% fetal bovine serum, 100 U/mL penicillin, and […] streptomycin) at 37 °C in a 5% CO2 incubator. When the cells covered 80% of the bottom of the plate, they were passaged more than three times.
Adherent RAW 264.7 cells were digested to detach the cells. Digestion was stopped via the addition of PBS and centrifuging at 1000 rpm for 5 min. The supernatant was discarded, and the cells were resuspended in 1 mL of medium for cell counting. Based on the counting results, the cell suspension was diluted. Then, 100 μL of the diluted cell suspension was added to a 96-well plate, with approximately 1 × 10^4 cells per well. The cells were then placed in the incubator to allow for adherence.
One well without cells received 100 μL of complete medium as a blank control, and one well with cells received 100 μL of complete medium as a negative control. […]
After incubation, the medium was removed, and 100 μL of 10% CCK8 solution was added to each well. The absorbance at 450 nm (OD450) was measured at 0.5 h, 1 h, and 2 h until OD450 = 1.
Cell viability was calculated using the following formula: cell activity = (OD450 compound − OD450 blank)/(OD450 negative control − OD450 blank) x 100%

The term inhibition denotes how much of the control response was suppressed.

For the compound `O=C(CCCOc1ccc(I)cc1)NN1CCCOC1=O` [Y-31], the “Inhibition rate of elastase” value in series [1] (162.5 μM) was 22.7%. The inhibition at 40 µM came to 11.3% in series [1] (Pseudomonas aeruginosa, PAO1, read-out: Inhibition rate of elastase, 40 μM) and 0.4% in series [2] (Pseudomonas aeruginosa, PAO1, read-out: Inhibition rate of rhamnolipid, 40 μM). Further, the inhibition at 81.5 µM in series [1] (Pseudomonas aeruginosa, PAO1, read-out: Inhibition rate of elastase, 81.5 μM) was 20%; in series [2] (Pseudomonas aeruginosa, PAO1, read-out: Inhibition rate of rhamnolipid, 81.5 μM), 5.8%. Moreover, the inhibition at 162.5 µM in series [1] (Pseudomonas aeruginosa, PAO1, read-out: Inhibition rate of elastase, 162.5 μM) was found to be 22.7%; in series [2] (Pseudomonas aeruginosa, PAO1, read-out: Inhibition rate of rhamnolipid, 162.5 μM), 6.13%. Besides, in series [2] (162.5 μM), the “Inhibition rate of rhamnolipid” value worked out at 6.1%. Also, the “Average survival rate of infected nematodes, Y-31 combined with Tob compared with Y-31 or Tob alone” value in series [3] (Y-31 162.5 μM + Tob 0.25 μg/mL) is recorded as “significantly improved”. Also, the “Improvement of the survival rate of infected nematodes (average)” value in series [3] (after 48 h, agent alone: Y-31 162.5 μM, Tob 0.25 μg/mL) was found to be 9.33%. Further, in series [4], the “Swarming motility compared to the control group” value is recorded as “significantly reduced swarming motility”. Moreover, in the series on P. aeruginosa PAO1, the “Inhibition of the growth activity of PAO1” value is on record as “no significant inhibition”. Also, the “Cytotoxicity towards RAW 264.7 cells (cell viability)” value in the series with RAW 264.7 cells is given as “did not exhibit significant cytotoxicity”.
